From PubChem BioAssay AID789 (SRMLSC, 2007) come the findings set out here.

Structures are written as SMILES. Calls of active or inactive are those of the source. How the calls were made is not given here. Bounds are passed on as bounds.

The subject of assay [1] is S. cerevisiae apl2Δ mutant growth inhibition. The experiment in a line: growth inhibition of apl2Δ yeast, dose response, selectivity assay for post-Golgi transport modulator project, S. cerevisiae, secondary screen, background strain comparison (AID 789).
Experiment in assay [2]: as above
The note with it: for IC50: S. cerevisiae background (wild-type parent) strain growth inhibition; for growth inhibition: S. cerevisiae apl2Δ mutant growth inhibition, at 25 µM (top of the series).

For `CC1CCCCN1CCNC(=O)Cn1nc(-c2ccccc2)ccc1=O` (stereo not given), the IC50 was > 10 µM (inactive) in assay [1] and more than 10 µM in assay [2].
In the case of `Fc1ccc(Cn2nnc(-c3ccc(CN4CCOCC4)cc3)n2)cc1`, the results for the IC50 in assay [1] and in assay [2] were > 10 µM (inactive) and more than 10 µM, respectively.
In the case of `C=CCc1ccc(OCCCCN2CC(C)OC(C)C2)c(OC)c1` (stereo not given), in assay [2], the growth inhibition was 34.1% (inactive) and the IC50 is more than 10 µM.
Consider `Cc1cc(=O)[nH]c(SCC(=O)c2ccc(C)c(C)c2)n1`, for which the values for the IC50 in assay [1] and in assay [2] were 6.63 µM (inactive) and 2.31 µM, respectively.
Turning to `COc1ccc(C(=O)c2c(C(F)(F)F)oc3c2C(=O)c2ccccc2C3=O)cc1`, the IC50 in assay [1] is > 10 µM (inactive); in assay [2], 2.32 µM.
On to `O=C(Nc1nnc(-c2ccc3c(c2)CCCC3)o1)c1ccc(Cl)cc1Cl`, for which the IC50 is > 10 µM (inactive) in assay [1] and 3.46 µM in assay [2].
The matching figures for `Clc1ccc2[nH]c3c(NCC4CCCO4)ncnc3c2c1` (stereo not given): > 10 µM (inactive) and more than 10 µM.
Take `Cc1[nH]nc(N=CC2=C(O)CC(C)(C)CC2=O)c1-c1ccc(Cl)cc1`: in assay [1], the IC50 was > 10 µM (inactive).
With `O=C(OCn1ncc(Br)c(Br)c1=O)c1c(F)cccc1F`, the IC50 in assay [1] was > 10 µM (inactive).
Turning to `CCOc1ccc(NC(=O)N(C2CCCCC2)C(C)c2cccnc2)cc1` (stereo not given), the half-inhibitory concentration (IC50) in assay [1] is 21.5 µM.
On the same count and under the same terms, then `O=C(C1CCCN(S(=O)(=O)c2ccc(Cl)cc2)C1)N(Cc1cccs1)C1CC1` (stereo not given), with > 10 µM (inactive); and `O=S1(=O)C=C(Sc2nnc(-c3ccccc3)o2)c2ccccc21`, with > 10 µM (inactive).
The same measure, in the same setting: for `O=[N+]([O-])c1cc(Cl)cc(/C=N\Nc2ccccn2)c1O` the value was > 10 µM (inactive); for `CC1CCC(C(C)C)C(OCC(O)CN2CCN(Cc3ccccc3)CC2)C1` (stereo not given), 19.3 µM.
Still for that read-out and setting: for `O=C1C=C(c2ccccc2)C(=O)N1Nc1ccccc1` the value was > 10 µM (inactive).
`CCCCCOc1ccc(CN2CCOCC2)cc1Cl`: the half-inhibitory concentration (IC50) in assay [2] was more than 10 µM.
Regarding `O=C(Nc1nnc(-c2cccs2)o1)c1cccc(C(F)(F)F)c1`, the IC50 in assay [1] is > 10 µM (inactive).
For `CCCCC(=O)Nc1nc(C)c(-c2csc(Nc3ccc(Cl)cc3)n2)s1`, the IC50 in assay [2] was 6.26 µM.
On to `O=C(Nc1ccccc1)C1=C(O)CC(c2ccco2)CC1=Nc1ccccc1` (stereo not given), for which the IC50 in assay [2] is more than 10 µM.
In the case of `CC12CCC(c3c(C(=O)Nc4nccs4)nn(-c4ccccc4)c31)C2(C)C` (stereo not given), the IC50 in assay [1] was > 10 µM (inactive).
In the case of `O=C(CC(=O)c1cc(Cl)ccc1O)c1ccccc1`, in assay [2], the IC50 was 12.7 µM.
Regarding `CC(C)c1ccc(C(=O)CSc2n[nH]c(-c3ccncc3)n2)cc1`, the IC50 in assay [1] was 17 µM.
The same measure, in the same setting: for `CC1CCN(S(=O)(=O)c2ccc(NC(=O)CCN3C(=O)c4ccccc4C3=O)cc2)CC1` the value was > 10 µM (inactive).
Regarding `O=C(Nc1nnc(C2CC2)o1)c1ccc(S(=O)(=O)N2CCCc3ccccc32)cc1`, in assay [2], the growth inhibition is 30.1% (inactive) and the IC50 was found to be 3.17 µM.
Take `O=C(N/N=C/c1ccc([N+](=O)[O-])o1)c1cc(-c2cccc(Br)c2)nc2ccccc12`: in assay [2], the growth inhibition is 42.1% (inactive) and the IC50 was 4.65 µM.
On to `COc1ccc(OCCSc2nnc3sc4ccccc4n23)cc1`, for which the IC50 in assay [1] was > 10 µM (inactive).
As to `CC(Sc1ccsc1[N+](=O)[O-])C(=O)NCCc1ccc(Cl)cc1` (stereo not given), the IC50 in assay [1] is > 10 µM (inactive).
On the same count and under the same terms, then `O=C(OCn1ncc(Br)c(Br)c1=O)c1ccccc1Cl`, with > 10 µM (inactive).
On to `N=c1c2c(-c3ccccc3)c(-c3ccccc3)n(Cc3ccco3)c2ncn1Cc1ccccc1`, for which, in assay [1], the 50% inhibitory concentration (IC50) is 20.9 µM.
As for `CCCCCCCCNc1ncnc2ccccc12`, the concentration for half-maximal inhibition (IC50) in assay [2] is 14.8 µM.
Consider `Cc1ccc(Cl)c(OCCCCN(C)Cc2ccccc2)c1`, for which the 50% inhibitory concentration (IC50) in assay [2] was more than 10 µM.
On to `O=C(Nc1nnc(-c2ccccc2)o1)c1ccc(Cl)cc1`, for which, in assay [2], the growth inhibition is 40.8% (inactive) and the IC50 came to 0.65 µM.
Take `CCOC(=O)c1ccc(NC(=O)c2cn(-c3ccccc3)nc2-c2ccncc2)cc1`: in assay [2], the growth inhibition was 18.6% (inactive) and the IC50 came out at 11.5 µM.
`O=C1c2ccccc2C(=O)c2c1oc(C(F)(F)F)c2C(=O)c1ccccc1`: the half-inhibitory concentration (IC50) in assay [2] is 2.2 µM.
For the molecule `O=S1(=O)C=C(Sc2nc3ccccc3s2)c2ccccc21`, the IC50 in assay [1] was > 10 µM (inactive).
Turning to `CC1CN(CCCCOc2ccc(C(C)C)cc2)CC(C)O1` (stereo not given), in assay [2], the IC50 is more than 10 µM.
`Cc1ccc(OCC(O)CN2CCN(Cc3ccc4c(c3)OCO4)CC2)c(C)c1` (stereo not given): the IC50 in assay [2] is more than 10 µM.
In the case of `O=S(=O)(Cc1ccccc1Cl)N1CCN(Cc2ccc3c(c2)OCO3)CC1`, the IC50 in assay [1] is > 10 µM (inactive).
Consider `CC(c1nnc(SCn2nnc3ccccc3c2=O)n1-c1ccc(Cl)cc1)N(C)C` (stereo not given), for which, in assay [1], the IC50 was > 10 µM (inactive).
Consider `O=C(OCn1ncc(Cl)c(Cl)c1=O)c1cccc(C(F)(F)F)c1`, for which, in assay [2], the 50% inhibitory concentration (IC50) came out at 3.51 µM.
`N[C@@H](Cc1c[nH]c2ccccc12)c1nnc(SCc2ccc(Cl)cc2)o1`: the half-maximal inhibitory concentration (IC50) in assay [2] came out at 20.4 µM.
Consider `CCOc1nc(SCCOc2ccccc2)nc(N(C)C)n1`, for which the IC50 in assay [1] is > 10 µM (inactive).
With `CCCCC(c1nnnn1Cc1ccco1)N1CCN(c2nc3ccccc3s2)CC1` (stereo not given), the IC50 in assay [2] is 3.9 µM.
In the case of `O=C(Nc1nnc(-c2ccc3c(c2)CCCC3)o1)c1ccccc1`, in assay [1], the IC50 was > 10 µM (inactive).
For the molecule `O=C(CN1CCN(c2ccccn2)CC1)Nc1ccc(Oc2ccccc2)cc1`, in assay [1], the IC50 is > 10 µM (inactive).
For `Cc1cccc(-c2nnc(-c3cccc(NC(=O)Cc4cccs4)c3)o2)c1`, the half-inhibitory concentration (IC50) in assay [2] stood at 15.2 µM.
For `O=C(NCC(c1cccnc1)N1CCN(c2ccc(F)cc2)CC1)OCc1ccccc1` (stereo not given), the 50% inhibitory concentration (IC50) in assay [1] was 23.4 µM.
Turning to `N#Cc1ccccc1Cn1cc(C(=O)c2cccs2)c2ccccc21`, in assay [1], the IC50 is > 10 µM (inactive).
As for `CC(=O)c1ccc(N2CCN(C(=O)c3ccc(Br)cc3)CC2)c(F)c1`, the IC50 in assay [2] turned out to be 6.58 µM.

A word on the IC50: it is the point on the concentration scale where inhibition reaches its midpoint.
